Measurements from patent US11000033B2, “Ketone or oxime compound, and herbicide” (NISSAN CHEMICAL CORPORATION, priority 2014, dated 2021).

Assays:
Format in all cases: in vivo
transplanted rice plant = experiment: Test Example 1: effect on crop, application before weed generation in submerged conditions (symbol a); conditions: application herbicide amount 320 g/ha
Outline: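 Rice at 2.5 leaf stage transplanted into submerged soil (4 cm depth) sown with three weed species; herbicide applied before weed emergence.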

Scirpus juncoides = experiment: Test Example 2: herbicidal activity, application during weed generation in submerged conditions (symbol B); conditions: Table 23; application herbicide amount 320 g/ha; grade 0-5 by criteria of Test Example 1
Outline: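 Alluvial soil in pots was flooded to a 4 cm water depth and sown with a mix of the three weed species, then grown in a greenhouse at 25° C. to 30° C. At the one- to two-leaf stage, an emulsifiable formulation diluted in water to a set dose was applied to the water surface. Effects were scored visually 3 weeks later.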

Cyperus difformis = experiment: Test Example 3: herbicidal effect by foliage application, Wagner pot (symbol E); conditions: application herbicide amount 320 g/ha
Outline: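 Weeds and rice were sown in alluvial soil under 0.1–0.5 cm of standing water and grown for 14 days in a 25–30 °C greenhouse. An emulsion of the compound, diluted in water to a set dose, was sprayed evenly onto the foliage. Effect was scored against fixed criteria 3 weeks after treatment.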

[1] = system: Echinochloa crus-galli var. crus-galli; experiment: Test Example 4: herbicidal effect by soil treatment (symbol H); conditions: application herbicide amount 320 g/ha
Outline: (§1)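 Seeds were sown in sterilized diluvial soil, covered with about 1.5 cm of soil, and the soil surface was sprayed with a water-diluted emulsion of the compound at a predetermined rate. Plants grew in a greenhouse at 25° C. to 30° C.; effects were scored visually 3 weeks after application.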

Apera spica-venti = experiment: Test Example 4: herbicidal effect by soil treatment (symbol L); conditions: application herbicide amount 320 g/ha
Outline: as §1

Abutilon theophrasti = experiment: Test Example 4: herbicidal effect by soil treatment (symbol M); conditions: application herbicide amount 320 g/ha
Outline: as §1

Stellaria media = experiment: Test Example 4: herbicidal effect by soil treatment (symbol P); conditions: application herbicide amount 320 g/ha
Outline: as §1

corn [2] = experiment: Test Example 4: effect on crop by soil treatment (symbol c); conditions: application herbicide amount 320 g/ha
Outline: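 Sterilized diluvial soil, spot sowing, ~1.5 cm soil cover; greenhouse 25–30° C.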

rice = experiment: Test Example 4: effect on crop by soil treatment (symbol b); conditions: application herbicide amount 320 g/ha
Outline: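 Diluvial soil (sterilized) in boxes; seeds placed spot-wise alongside weed species; ~1.5 cm covering soil. Greenhouse, 25–30° C.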

[3] = system: Echinochloa crus-galli var. crus-galli; experiment: Test Example 5: herbicidal effect by foliage application, plastic box (symbol H); conditions: 320 g/ha, 3 weeks after application
Outline: (§2)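 Post-emergence spray; diluvial soil (sterilized), ~1.5 cm seed cover; greenhouse 25–30° C; 14-day-old plants; water-diluted emulsion at predetermined dose; visual score at 3 wk post-treatment.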

Alopecurus myosuroides = experiment: Test Example 5: herbicidal effect by foliage application, plastic box (symbol J); conditions: 320 g/ha, 3 weeks after application
Outline: as §2

corn [4] = experiment: Test Example 5: effect on crop by foliage application, plastic box (symbol c); conditions: 320 g/ha, 3 weeks after application
Outline: (§3)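 Seeds were sown in spots in sterilized diluvial soil held in a plastic box 21 cm × 13 cm × 7 cm deep, covered with about 1.5 cm of soil, and grown in a greenhouse at 25° C. to 30° C.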

soybean = experiment: Test Example 5: effect on crop by foliage application, plastic box (symbol d); conditions: 320 g/ha, 3 weeks after application
Outline: as §3

beet = experiment: Test Example 5: effect on crop by foliage application, plastic box (symbol f); conditions: 320 g/ha, 3 weeks after application
Outline: as §3

SMILES | Effect grade on crop, a: transplanted rice plant (transplanted rice plant) | Herbicidal effect grade, B: Scirpus juncoides (Scirpus juncoides) | herbicidal effect on E, grade 0-5 (Cyperus difformis) | H: Echinochloa crus-galli var. crus-galli, herbicidal effect grade [1] | L: Apera spica-venti, herbicidal effect grade (Apera spica-venti) | M: Abutilon theophrasti, herbicidal effect grade (Abutilon theophrasti) | P: Stellaria media, herbicidal effect grade (Stellaria media) | c: corn, effect on crop grade (corn [2]) | b: directly sowed rice plant, effect on crop grade (rice) | H: Echinochloa crus-galli var. crus-galli, herbicidal effect grade [3] | J: Alopecurus myosuroides, herbicidal effect grade (Alopecurus myosuroides) | c: corn, effect on crop grade (corn [4]) | d: soybean, effect on crop grade (soybean) | f: beet, effect on crop grade (beet) | H (Echinochloa crus-galli var. crus-galli) herbicidal effect grade [1] | L (Apera spica-venti) herbicidal effect grade (Apera spica-venti) | M (Abutilon theophrasti) herbicidal effect grade (Abutilon theophrasti) | P (Stellaria media) herbicidal effect grade (Stellaria media) | c (corn) effect on crop grade (corn [2]) | b (directly sowed rice plant) effect on crop grade (rice)
Cc1cc(C)c(C2=C(O)CC(CC(=O)C(C)(C)C)C2=O)c(C)c1 (stereo not drawn) [2-022] | 3 (Herbicidal ratio of 40% or higher and lower than 70%) | 0 (Herbicidal ratio of 5% or lower (almost no effect)) | 2 (Herbicidal ratio of 20% or higher and lower than 40%) | 0 (Herbicidal ratio of 5% or lower (almost no effect)) | 0 (Herbicidal ratio of 5% or lower (almost no effect)) | 0 (Herbicidal ratio of 5% or lower (almost no effect)) | 0 (Herbicidal ratio of 5% or lower (almost no effect)) | 0 (Herbicidal ratio of 5% or lower (almost no effect)) | 4 (Herbicidal ratio of 70% or higher and lower than 90%) | 1 (Herbicidal ratio of 5% or higher and lower than 20%) | 3 (Herbicidal ratio of 40% or higher and lower than 70%) | 3 (Herbicidal ratio of 40% or higher and lower than 70%) | 0 (Herbicidal ratio of 5% or lower (almost no effect)) | 0 (Herbicidal ratio of 5% or lower (almost no effect)) | – | – | – | – | – | –
CCOC(=O)C(C(=O)c1ccccn1)C1CC(O)=C(c2c(C)cc(C)cc2C)C1=O (stereo not drawn) [2-013] | 0 (Herbicidal ratio of 5% or lower (almost no effect)) | 0 (Herbicidal ratio of 5% or lower (almost no effect)) | 0 (Herbicidal ratio of 5% or lower (almost no effect)) | 1 (Herbicidal ratio of 5% or higher and lower than 20%) | 0 (Herbicidal ratio of 5% or lower (almost no effect)) | 0 (Herbicidal ratio of 5% or lower (almost no effect)) | 0 (Herbicidal ratio of 5% or lower (almost no effect)) | 0 (Herbicidal ratio of 5% or lower (almost no effect)) | 5 (Herbicidal ratio of 90% or more (almost completely withered)) | 5 (Herbicidal ratio of 90% or more (almost completely withered)) | 5 (Herbicidal ratio of 90% or more (almost completely withered)) | 4 (Herbicidal ratio of 70% or higher and lower than 90%) | 0 (Herbicidal ratio of 5% or lower (almost no effect)) | 0 (Herbicidal ratio of 5% or lower (almost no effect)) | – | – | – | – | – | –
CON=C(C)CC1CC(O)=C(c2c(C)cc(Br)cc2C)C1=O (stereo not drawn) [6-003] | 5 (Herbicidal ratio of 90% or more (almost completely withered)) | 1 (Herbicidal ratio of 5% or higher and lower than 20%) | 5 (Herbicidal ratio of 90% or more (almost completely withered)) | 5 (Herbicidal ratio of 90% or more (almost completely withered)) | 5 (Herbicidal ratio of 90% or more (almost completely withered)) | 5 (Herbicidal ratio of 90% or more (almost completely withered)) | 0 (Herbicidal ratio of 5% or lower (almost no effect)) | 4 (Herbicidal ratio of 70% or higher and lower than 90%) | 5 (Herbicidal ratio of 90% or more (almost completely withered)) | 5 (Herbicidal ratio of 90% or more (almost completely withered)) | 5 (Herbicidal ratio of 90% or more (almost completely withered)) | 5 (Herbicidal ratio of 90% or more (almost completely withered)) | 3 (Herbicidal ratio of 40% or higher and lower than 70%) | 0 (Herbicidal ratio of 5% or lower (almost no effect)) | – | – | – | – | – | –
CCc1cc(-n2cc(Cl)cn2)cc(C)c1C1=C(O)CC(CC(C)=NOC)C1=O (mixture of isomers) [6-005] | 5 (Herbicidal ratio of 90% or more (almost completely withered)) | 2 (Herbicidal ratio of 20% or higher and lower than 40%) | 3 (Herbicidal ratio of 40% or higher and lower than 70%) | 5 (Herbicidal ratio of 90% or more (almost completely withered)) | 5 (Herbicidal ratio of 90% or more (almost completely withered)) | 0 (Herbicidal ratio of 5% or lower (almost no effect)) | 0 (Herbicidal ratio of 5% or lower (almost no effect)) | 3 (Herbicidal ratio of 40% or higher and lower than 70%) | 5 (Herbicidal ratio of 90% or more (almost completely withered)) | 5 (Herbicidal ratio of 90% or more (almost completely withered)) | 5 (Herbicidal ratio of 90% or more (almost completely withered)) | 5 (Herbicidal ratio of 90% or more (almost completely withered)) | 4 (Herbicidal ratio of 70% or higher and lower than 90%) | 0 (Herbicidal ratio of 5% or lower (almost no effect)) | – | – | – | – | – | –
CON=C(C)CC1CC(OC(=O)c2ccccc2)=C(c2c(C)cc(C)cc2C)C1=O (stereo not drawn) [1-010] | 5 (Herbicidal ratio of 90% or more (almost completely withered)) | 5 (Herbicidal ratio of 90% or more (almost completely withered)) | 5 (Herbicidal ratio of 90% or more (almost completely withered)) | – | – | – | – | – | – | 5 (Herbicidal ratio of 90% or more (almost completely withered)) | 5 (Herbicidal ratio of 90% or more (almost completely withered)) | 5 (Herbicidal ratio of 90% or more (almost completely withered)) | 4 (Herbicidal ratio of 70% or higher and lower than 90%) | 4 (Herbicidal ratio of 70% or higher and lower than 90%) | 5 (Herbicidal ratio of 90% or more (almost completely withered)) | 5 (Herbicidal ratio of 90% or more (almost completely withered)) | 5 (Herbicidal ratio of 90% or more (almost completely withered)) | 4 (Herbicidal ratio of 70% or higher and lower than 90%) | 4 (Herbicidal ratio of 70% or higher and lower than 90%) | 5 (Herbicidal ratio of 90% or more (almost completely withered))
Cc1cc(C)c(C2=C(O)CC(CC(=O)C3CCCCC3)C2=O)c(C)c1 (stereo not drawn) [2-030] | 3 (Herbicidal ratio of 40% or higher and lower than 70%) | 0 (Herbicidal ratio of 5% or lower (almost no effect)) | 0 (Herbicidal ratio of 5% or lower (almost no effect)) | 1 (Herbicidal ratio of 5% or higher and lower than 20%) | 4 (Herbicidal ratio of 70% or higher and lower than 90%) | 0 (Herbicidal ratio of 5% or lower (almost no effect)) | 0 (Herbicidal ratio of 5% or lower (almost no effect)) | 1 (Herbicidal ratio of 5% or higher and lower than 20%) | 5 (Herbicidal ratio of 90% or more (almost completely withered)) | 4 (Herbicidal ratio of 70% or higher and lower than 90%) | 3 (Herbicidal ratio of 40% or higher and lower than 70%) | 2 (Herbicidal ratio of 20% or higher and lower than 40%) | 0 (Herbicidal ratio of 5% or lower (almost no effect)) | 0 (Herbicidal ratio of 5% or lower (almost no effect)) | – | – | – | – | – | –
